We go through five molecules from US8992933B2, “Methods for activating T cells and modulating an immune response” (New York University, priority 2011, dated 2015).

Common to all, as to type: cell-based, human
In data set [1] the test system is TM cells. Put plainly: Cell viability under PI-3K/Akt inhibitor treatment. Conditions: 1-10 μg/mL. Here is the method:
Cells were stained as previously described (Oswald-Richter, et al., PLoS Pathogens 2007; 3: e58). For intracellular staining, T cell cultures were stimulated for 5 hours at 37° C. with PMA and Ionomycin and Golgistop (BD Biosciences). Stimulated cells were washed with PBS and stained with Fixable Viability Dye eFluor450 (eBioscience) to gate on live cells. Cells were then fixed and permeabilized by commercially available Foxp3 intracellular staining kit (eBioscience) or cytofix/cytoperm kit (BD Biosciences) as per manufacturer's protocol. Antibodies used for surface and intracellular staining included: CD45RO-[…]3), PE Cy7 or A700; […] IL-17A (IL-17)-Pacific Blue (Clone BL168), FITC or Percp Cy5.5; […]) or APC (eBioscience); […] FOXO1 rabbit monoclonal antibody; phospho-AKT ([…])-Alexa Fluor 488; Rabbit IgG isotype control-Alexa Fluor 488 (Cell Signaling, Danvers, Mass.); and CCR6-biotin (BD Biosciences). Secondary antibodies used were: Streptavidin-APC or […]5.5 (BD Biosciences), Goat anti mouse-APC (BD Biosciences), anti rabbit-Alexa 647 (Molecular Probes). All data were acquired on LSRII instrument (BD Biosciences) using FACSDiva software. Data analyses were done using Flowjo software (Treestar Inc, Ashland, Oreg.). For phospho-Akt staining, Jurkat cells were fixed with BD Cytofix buffer (BD Biosciences) pre-warmed to 37° C. for 10 minutes. […]

For data set [2], the system named is resting CCR6+CD45RO+CD25- TM cells. Put plainly: Cytokine expression in resting CCR6+ TM cells cultured with cytokines, no TCR stimulation (intracellular staining). As to the method: (§1) Peripheral Blood Mononuclear Cells (PBMCs) from healthy individuals (New York Blood Center, New York, N.Y.) were prepared using Ficoll-paque plus (GE Amersham, Uppsala, Sweden). Whole blood samples from rheumatoid arthritis patients were purchased from Bioreclamation (New York, N.Y.) and were processed similar to healthy donor blood. All healthy donor and patient samples were consented prior to purchase, were none-identifiable and approved by institutional human subjects board. CD4^+ T cells were isolated using Dynal CD4 Positive Isolation Kit (Invitrogen, Carlsbad, Calif.) directly from purified PBMCs and were >99% pure. CD4^+ T cells were sorted by FACS ARIA cell sorter (BD, San Jose, Calif.) into CD45RO^+ CD25^− memory T (TM) cells. TM cells were activated either by anti-CD3 and anti-CD28 (aCD3/aCD28) coated beads (1:4 beads:cells ratio) for 18-24 hours, or by Phorbol 12-myristate 13-acetate (PMA) and ionomycin for 4 hours and further FACS sorted based on CCR6 and IL-17 expression into CCR6^− IL-17^−, CCR6^+IL-17^+, or CCR6^+IL-17^− subsets (as determined by secretion assay labeling, see below). Sorted cells (>99% pure) were cultured in serum-free Xvivo-15 medium (Lonza, Wakersville, Md.) at 37° C. and 5% CO2 for 6-7 days prior to restimulation with PMA and ionomycin (see below). […] To determine the fold expansion, CCR6^+IL-17^+ or CCR6 IL-17^− subsets were labeled with CFSE (Molecular Probes, Eugene, Oreg.) or eFluor 670 (eBioscience, San Diego, Calif.), respectively, as previously described (Oswald-Richter, et al., PLoS Biol 2004; 2: E198). […] In the experiments using PI-3K signaling inhibitors, cells were treated with PI-3K specific inhibitor, LY294002 (EMD, Gibbstown, N.J.), or Akt specific inhibitor, AKTi-1/2 (EMD), for 2 days before PMA and Ionomycin restimulation.
Cells were stained as previously described (Oswald-Richter, et al., PLoS Pathogens 2007; 3: e58). For intracellular staining, T cell cultures were stimulated for 5 hours at 37° C. with PMA and Ionomycin and Golgistop (BD Biosciences). Stimulated cells were washed with PBS and stained with Fixable Viability Dye eFluor450 (eBioscience) to gate on live cells. Cells were then fixed and permeabilized by commercially available Foxp3 intracellular staining kit (eBioscience) or cytofix/cytoperm kit (BD Biosciences) as per manufacturer's protocol. Antibodies used for surface and intracellular staining included: CD45RO-FITC; CD25-PE; IFN-γ-FITC (clone 4S. B3), PE Cy7 or A700; IL-4-APC or PE; IL-17A (IL-17)-Pacific Blue (Clone BL168), FITC or Percp Cy5.5; IL-10-APC (Biolegend); IL-22-PE (R&D) or APC (eBioscience); IL-21-PE (clone 22URT1, eBioscience); FOXO1 rabbit monoclonal antibody; phospho-AKT (Ser473)-Alexa Fluor 488; Rabbit IgG isotype control-Alexa Fluor 488 (Cell Signaling, Danvers, Mass.); and CCR6-biotin (BD Biosciences). Secondary antibodies used were: Streptavidin-APC or PercpCy5.5 (BD Biosciences), Goat anti mouse-APC (BD Biosciences), anti rabbit-Alexa 647 (Molecular Probes). All data were acquired on LSRII instrument (BD Biosciences) using FACSDiva software. Data analyses were done using Flowjo software (Treestar Inc, Ashland, Oreg.). For phospho-Akt staining, Jurkat cells were fixed with BD Cytofix buffer (BD Biosciences) pre-warmed to 37° C. for 10 minutes. After spinning down, the cells were permeablilzed with ice-cold BD Phosflow Perm buffer III (BD Biosciences) on ice for 30 minutes and were stained with phospho-antibody.

Data set [3] deals with CCR6+ TM cells. Put plainly: Cytokine gene expression by quantitative nuclease protection assay (qNPA). The note with it: IL-7 stimulation.
Data set [4] concerns Klf2. Put plainly: Klf2 mRNA by RT-qPCR in TM cells. Conditions: stimulation with IL-7 alone. As to the method: Peripheral Blood Mononuclear Cells (PBMCs) from healthy individuals (New York Blood Center, New York, N.Y.) were prepared using Ficoll-paque plus (GE Amersham, Uppsala, Sweden). Whole blood samples from rheumatoid arthritis patients were purchased from Bioreclamation (New York, N.Y.) and were processed similar to healthy donor blood. All healthy donor and patient samples were consented prior to purchase, were none-identifiable and approved by institutional human subjects board. CD4^+ T cells were isolated using Dynal CD4 Positive Isolation Kit (Invitrogen, Carlsbad, Calif.) directly from purified PBMCs and were >99% pure. […] TM cells were activated either by anti-CD3 and anti-CD28 (aCD3/aCD28) coated beads (1:4 beads:cells ratio) for 18-24 hours, or by Phorbol 12-myristate 13-acetate (PMA) and ionomycin for 4 hours and further FACS sorted based on CCR6 and IL-17 expression into CCR6^− IL-17^−, CCR6^+IL-17^+, or CCR6^+IL-17^− subsets (as determined by secretion assay labeling, see below). […]
Purified T cells (1×10^5) were snap frozen in liquid nitrogen for total RNA isolation. […] The extracted RNA was then reverse transcribed into cDNA and quantified using Taqman Cell to CT kit (Applied Biosystems, Carlsbad, Calif.). […] Data was acquired and analyzed on ABI 7500 sequence detection system. […]
On the technique in general: Real-time PCR tracks product formation cycle by cycle.

Data set [5] has as its system CCR6+ IL-17- TM cells. In words: IL-17 induction by cytokine culture of sorted, activated CCR6+IL-17- memory T cells (intracellular staining, FACS). Conditions: cultured with the cytokine for 6 days; IL-23 in the absence of IL-2. As to the method:
as §1
Manufacturer's protocols (Miltenyi Biotec) for labeling human and mouse IL-17 secreting cells were followed. Briefly, activated T-cells were washed in cold buffer (PBS+0.5% BSA+2 mM EDTA) and labeled with IL-17 catch reagent for 5 minutes on ice. […]

The test system of data set [6] is CCR6- TM cells. In words: Cytokine expression in resting CCR6- TM cells cultured with IL-7. Conditions: stimulated with IL-7. As to the method: (§2) Peripheral Blood Mononuclear Cells (PBMCs) from healthy individuals (New York Blood Center, New York, N.Y.) were prepared using Ficoll-paque plus (GE Amersham, Uppsala, Sweden). Whole blood samples from rheumatoid arthritis patients were purchased from Bioreclamation (New York, N.Y.) and were processed similar to healthy donor blood. All healthy donor and patient samples were consented prior to purchase, were none-identifiable and approved by institutional human subjects board. CD4^+ T cells were isolated using Dynal CD4 Positive Isolation Kit (Invitrogen, Carlsbad, Calif.) directly from purified PBMCs and were >99% pure. CD4^+ T cells were sorted by FACS ARIA cell sorter (BD, San Jose, Calif.) into CD45RO^+ CD25^− memory T (TM) cells. TM cells were activated either by anti-CD3 and anti-CD28 (aCD3/aCD28) coated beads (1:4 beads:cells ratio) for 18-24 hours, or by Phorbol 12-myristate 13-acetate (PMA) and ionomycin for 4 hours and further FACS sorted based on CCR6 and IL-17 expression into CCR6^− IL-17^−, CCR6^+IL-17^+, or CCR6^+IL-17^− subsets (as determined by secretion assay labeling, see below). Sorted cells (>99% pure) were cultured in serum-free Xvivo-15 medium (Lonza, Wakersville, Md.) at 37° C. and 5% CO2 for 6-7 days prior to restimulation with PMA and ionomycin (see below). […]

In data set [7] the test system is CCR6- TM cells. In words: IL-17 induction by cytokine culture of sorted, activated CCR6-IL-17- memory T cells. Conditions: cultured with the cytokine, restimulation. Here is the method: as §2

`O=c1cc(N2CCOCC2)oc2c(-c3ccccc3)cccc12` [LY294002]: the cell viability entry in data set [1] was “without adversely affecting cell viability”.
Take IL-4: another γc-cytokine: the “IL-17/IL-22 (Th17 cytokine) expression in resting CCR6+ TM cells” value in data set [2] (stimulation with the single cytokine) was “did not promote Th17 cytokine production”.
As for IL-7: γc-cytokine (R&D Systems), in data set [3], the Ccl20 expression result was “neither significantly induced” and the “expression of non-Th17 related cytokines (Il2, Ifng, Tnf)” value was “not influenced”. Also, the “Klf2 expression in resting CCR6+ TM cells” value in data set [4] is listed as “decreased”. The “expression of IL-21” value in data set [2] (CCR6+ or CCR6- TM cells upon stimulation with IL-7) is “slightly reduced”. In data set [2] (IL-7 for 10 days), the “enhancement of IL-17 expression compared to the same cells ex vivo (day 0)” value is “more than 3 fold” and the “enhancement of IL-22 expression compared to the same cells ex vivo (day 0)” value is listed as “more than 3 fold”. For the same molecule, in data set [2] (IL-7 stimulation), the “increase of double cytokine-producing cells (IL-22 or IFNγ co-expressed with IL-17)” value is “more than 5 fold”. The “impact on IFNγ production” value in data set [2] (resting CCR6+ or CCR6- TM cells cultured with IL-7) is given as “almost no impact”. For the same molecule, the “de novo IL-17 expression in CCR6+ IL-17- T cells” value (shortened to “de novo IL-17 expression”) in data set [5] was “induced similar levels of IL-17 expression”. The “IL-17 or IL-22 expression in CCR6- TM cells” value in data set [6] was “failed to express IL-17 or IL-22”. Also, the “IL-17 expression in CCR6- TM cells” value in data set [7] is given as “neither IL-7 nor IL-15 induced IL-17 expression”.
Consider IL-15: γc-cytokine (R&D Systems), for which the “de novo IL-17 expression” value in data set [5] is on record as “induced similar levels of IL-17 expression”. Besides, in data set [7], the “IL-17 expression in CCR6- TM cells” value is “neither IL-7 nor IL-15 induced IL-17 expression”.

B1: IL-23: cytokine (R&D Systems) (protein, UniProt Q9NPF7 20-189; P29460 23-328, looked up)
Interleukin-23 subunit alpha: RAVPGGSSPAWTQCQQLSQKLCTLAWSAHPLVGHMDLREEGDEETTNDVPHIQCGDGCDPQGLRDNSQFCLQRIHQGLIFYEKLLGSDIFTGEPSLLPDSPVGQLHASLLGLSQLLQPEGHHWETQQIPSLSPSQPWQRLLLRFKILRSLQAFVAVAARVFAHGAATLSP
Interleukin-12 subunit beta: IWELKKDVYVVELDWYPDAPGEMVVLTCDTPEEDGITWTLDQSSEVLGSGKTLTIQVKEFGDAGQYTCHKGGEVLSHSLLLLHKKEDGIWSTDILKDQKEPKNKTFLRCEAKNYSGRFTCWWLTTISTDLTFSVKSSRGSSDPQGVTCGAATLSAERVRGDNKEYEYSVECQEDSACPAAEESLPIEVMVDAVHKLKYENYTSSFFIRDIIKPDPPKNLQLKPLKNSRQVEVSWEYPDTWSTPHSYFSLTFCVQVQGKSKREKKDRVFTDKTSATVICRKNASISVRAQDRYYSSSWSEWASVPCS
For the molecule B1, in data set [2] (IL-7 (20 ng/ml)+IL-23 (20 ng/ml) for 10 days), the “synergy with IL-7 to further induce IL-17 or IL-22 expression” value is recorded as “did not significantly synergize”. In addition, in data set [5], the “de novo IL-17 expression” value was “did not influence IL-17 expression”.
